Test results as given in ChEMBL document CHEMBL1649369, “Novel 4-aryl-pyrido[1,2-c]pyrimidines with dual SSRI and 5-HT(1A) activity. part 3” (Eur J Med Chem, 2011).
The source made the active and inactive calls. The rule behind the calls is not given here.

Experiments:
Mus musculus [1] = assay: Effect on hypothermia in Swiss albino mouse assessed as change in rectal body temperature at 5 mg/kg, ip after 120 mins by inducible hypothermia test; format: functional, organism-based; set-up: dose 5 mg/kg
Mus musculus [2] = assay: Effect on hypothermia in Swiss albino mouse assessed as change in rectal body temperature at 2.5 mg/kg, ip after 60 mins by inducible hypothermia test; format: functional, organism-based; set-up: dose 2.5 mg/kg
Mus musculus [3] = assay: Effect on hypothermia in Swiss albino mouse assessed as change in rectal body temperature at 2.5 mg/kg, ip after 90 mins by inducible hypothermia test; format: functional, organism-based; set-up: dose 2.5 mg/kg
Mus musculus [4] = assay: Effect on hypothermia in Swiss albino mouse assessed as change in rectal body temperature at 5 mg/kg, ip dosed 15 mins after 0.1 mg/kg, sc WAY 100635 challenge measured after 60 mins by inducible hypothermia test; format: functional, organism-based
Mus musculus [5] = assay: Effect on hypothermia in Swiss albino mouse assessed as change in rectal body temperature at 2.5 mg/kg, ip after 30 mins by inducible hypothermia test; format: functional, organism-based; set-up: dose 2.5 mg/kg
[6] = target: Sodium-dependent serotonin transporter (Rattus norvegicus, UniProt P31652); assay: Displacement of [3H]citalopram from SERT in rat cerebral cortex by liquid scintillation counting; format: tissue-based
[7] = target: T1, 5-hydroxytryptamine receptor 1A (Rattus norvegicus, UniProt P19327); assay: Displacement of [3H]8-OH-DPAT from 5-HT1A receptor in rat hippocampus; format: tissue-based
T1 sequence (P19327 whole entry): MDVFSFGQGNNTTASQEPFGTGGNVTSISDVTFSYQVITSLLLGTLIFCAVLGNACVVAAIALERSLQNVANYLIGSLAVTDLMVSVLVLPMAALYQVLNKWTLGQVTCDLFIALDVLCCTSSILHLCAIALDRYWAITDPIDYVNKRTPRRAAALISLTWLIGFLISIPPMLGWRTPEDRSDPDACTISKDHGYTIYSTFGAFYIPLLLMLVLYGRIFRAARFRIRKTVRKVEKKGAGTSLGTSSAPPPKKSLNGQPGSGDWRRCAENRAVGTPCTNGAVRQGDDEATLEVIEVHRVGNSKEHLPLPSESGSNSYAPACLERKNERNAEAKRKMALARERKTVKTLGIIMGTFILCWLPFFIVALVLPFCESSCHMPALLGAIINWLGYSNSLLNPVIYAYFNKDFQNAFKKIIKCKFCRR

Mus musculus [8] = assay: Effect on hypothermia in Swiss albino mouse assessed as change in rectal body temperature at 5 mg/kg, ip after 60 mins by inducible hypothermia test; format: functional, organism-based; set-up: dose 5 mg/kg
Mus musculus [9] = assay: Effect on hypothermia in Swiss albino mouse assessed as change in rectal body temperature at 5 mg/kg, ip after 90 mins by inducible hypothermia test; format: functional, organism-based; set-up: dose 5 mg/kg
Mus musculus [10] = assay: Effect on hypothermia in Swiss albino mouse assessed as change in rectal body temperature at 5 mg/kg, ip dosed 15 mins after 0.1 mg/kg, sc WAY 100635 challenge measured after 30 mins by inducible hypothermia test; format: functional, organism-based
Mus musculus [11] = assay: Effect on hypothermia in Swiss albino mouse assessed as change in rectal body temperature at 5 mg/kg, ip after 30 mins by inducible hypothermia test; format: functional, organism-based; set-up: dose 5 mg/kg
Mus musculus [12] = assay: Effect on hypothermia in Swiss albino mouse assessed as change in rectal body temperature at 2.5 mg/kg, ip after 120 mins by inducible hypothermia test; format: functional, organism-based; set-up: dose 2.5 mg/kg
Mus musculus [13] = assay: Effect on hypothermia in Swiss albino mouse assessed as change in rectal body temperature at 20 mg/kg, ip after 90 mins by inducible hypothermia test; format: functional, organism-based; set-up: dose 20 mg/kg
Mus musculus [14] = assay: Effect on hypothermia in Swiss albino mouse assessed as change in rectal body temperature at 10 mg/kg, ip after 60 mins by inducible hypothermia test; format: functional, organism-based; set-up: dose 10 mg/kg
Mus musculus [15] = assay: Effect on hypothermia in Swiss albino mouse assessed as change in rectal body temperature at 20 mg/kg, ip after 60 mins by inducible hypothermia test; format: functional, organism-based; set-up: dose 20 mg/kg
Mus musculus [16] = assay: Effect on hypothermia in Swiss albino mouse assessed as change in rectal body temperature at 10 mg/kg, ip after 30 mins by inducible hypothermia test; format: functional, organism-based; set-up: dose 10 mg/kg
Mus musculus [17] = assay: Effect on hypothermia in Swiss albino mouse assessed as change in rectal body temperature at 20 mg/kg, ip after 120 mins by inducible hypothermia test; format: functional, organism-based; set-up: dose 20 mg/kg
Mus musculus [18] = assay: Effect on hypothermia in Swiss albino mouse assessed as change in rectal body temperature at 10 mg/kg, ip after 120 mins by inducible hypothermia test; format: functional, organism-based; set-up: dose 10 mg/kg
Mus musculus [19] = assay: Effect on hypothermia in Swiss albino mouse assessed as change in rectal body temperature at 10 mg/kg, ip after 90 mins by inducible hypothermia test; format: functional, organism-based; set-up: dose 10 mg/kg
Mus musculus [20] = assay: Effect on hypothermia in Swiss albino mouse assessed as change in rectal body temperature at 20 mg/kg, ip after 30 mins by inducible hypothermia test; format: functional, organism-based; set-up: dose 20 mg/kg
Mus musculus [21] = assay: Antidepressant activity in Swiss albino mouse assessed as total immobility time at 10 mg/kg, ip administered 30 mins before test measured 6 mins test session after 2 mins habituation period by forced swimming test; format: functional, organism-based; set-up: dose 10 mg/kg
Mus musculus [22] = assay: Effect on hypothermia in Swiss albino mouse assessed as change in rectal body temperature at 20 mg/kg, ip dosed 15 mins after 0.1 mg/kg, sc WAY 100635 challenge measured after 30 mins by inducible hypothermia test; format: functional, organism-based
Mus musculus [23] = assay: Effect on hypothermia in Swiss albino mouse assessed as change in rectal body temperature at 20 mg/kg, ip dosed 15 mins after 0.1 mg/kg, sc WAY 100635 challenge measured after 60 mins by inducible hypothermia test; format: functional, organism-based
Mus musculus [24] = assay: Antidepressant activity in Swiss albino mouse assessed as total immobility time at 20 mg/kg, ip administered 30 mins before test measured 6 mins test session after 2 mins habituation period by forced swimming test; format: functional, organism-based; set-up: dose 20 mg/kg
Mus musculus [25] = assay: Effect on hypothermia in Swiss albino mouse assessed as change in rectal body temperature at 0.1 mg/kg, ip after 120 mins by inducible hypothermia test; format: functional, organism-based; set-up: dose 0.1 mg/kg
Mus musculus [26] = assay: Effect on hypothermia in Swiss albino mouse assessed as change in rectal body temperature at 0.1 mg/kg, ip after 60 mins by inducible hypothermia test; format: functional, organism-based; set-up: dose 0.1 mg/kg
Mus musculus [27] = assay: Reduction of 8-OH-DPAT-induced hypothermia in Swiss albino mouse at 0.1 mg/kg, ip administered 45 mins prior 8-OH-DPAT challenge measured after 60 mins by inducible hypothermia test; format: functional, organism-based; set-up: dose 0.1 mg/kg
Mus musculus [28] = assay: Reduction of 8-OH-DPAT-induced hypothermia in Swiss albino mouse at 0.1 mg/kg, ip administered 45 mins prior 8-OH-DPAT challenge measured after 45 mins by inducible hypothermia test; format: functional, organism-based; set-up: dose 0.1 mg/kg
Mus musculus [29] = assay: Effect on hypothermia in Swiss albino mouse assessed as change in rectal body temperature at 0.1 mg/kg, ip after 30 mins by inducible hypothermia test; format: functional, organism-based; set-up: dose 0.1 mg/kg
Mus musculus [30] = assay: Reduction of 8-OH-DPAT-induced hypothermia in Swiss albino mouse at 0.1 mg/kg, ip administered 45 mins prior 8-OH-DPAT challenge measured after 30 mins by inducible hypothermia test; format: functional, organism-based; set-up: dose 0.1 mg/kg
Mus musculus [31] = assay: Reduction of 8-OH-DPAT-induced hypothermia in Swiss albino mouse at 0.1 mg/kg, ip administered 45 mins prior 8-OH-DPAT challenge measured after 15 mins by inducible hypothermia test; format: functional, organism-based; set-up: dose 0.1 mg/kg
Mus musculus [32] = assay: Effect on hypothermia in Swiss albino mouse assessed as change in rectal body temperature at 0.1 mg/kg, ip after 90 mins by inducible hypothermia test; format: functional, organism-based; set-up: dose 0.1 mg/kg
Mus musculus [33] = assay: Antidepressant activity in Swiss albino mouse assessed as total immobility time at 2.5 mg/kg, ip administered 30 mins before test measured 6 mins test session after 2 mins habituation period by forced swimming test; format: functional, organism-based; set-up: dose 2.5 mg/kg
Mus musculus [34] = assay: Antidepressant activity in Swiss albino mouse assessed as total immobility time at 5 mg/kg, ip administered 30 mins before test measured 6 mins test session after 2 mins habituation period by forced swimming test; format: functional, organism-based; set-up: dose 5 mg/kg

Sodium-dependent serotonin transporter, sequence (P31652 whole entry): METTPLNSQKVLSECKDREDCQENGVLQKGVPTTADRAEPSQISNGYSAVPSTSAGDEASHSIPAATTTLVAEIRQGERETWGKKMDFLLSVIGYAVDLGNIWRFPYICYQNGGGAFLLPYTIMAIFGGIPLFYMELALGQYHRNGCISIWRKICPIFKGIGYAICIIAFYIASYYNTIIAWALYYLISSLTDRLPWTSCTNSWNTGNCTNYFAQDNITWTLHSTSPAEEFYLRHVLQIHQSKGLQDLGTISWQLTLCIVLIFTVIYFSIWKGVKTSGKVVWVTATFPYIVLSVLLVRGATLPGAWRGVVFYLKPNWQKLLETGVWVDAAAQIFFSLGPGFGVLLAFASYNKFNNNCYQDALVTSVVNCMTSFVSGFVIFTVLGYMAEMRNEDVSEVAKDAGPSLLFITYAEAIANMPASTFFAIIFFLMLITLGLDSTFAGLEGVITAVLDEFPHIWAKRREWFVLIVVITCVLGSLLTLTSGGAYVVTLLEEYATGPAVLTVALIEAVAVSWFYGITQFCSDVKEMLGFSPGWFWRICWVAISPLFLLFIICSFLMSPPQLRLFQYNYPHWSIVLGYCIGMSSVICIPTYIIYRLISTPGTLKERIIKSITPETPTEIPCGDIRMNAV

SMILES: O=c1c(-c2ccccc2F)c2n(c(=O)n1CCCCN1CCC(c3c[nH]c4ccccc34)CC1)CCCC2
- deltaT (Mus musculus [1]): -0.3 °C
- deltaT (Mus musculus [2]): -0.2 °C
- deltaT (Mus musculus [3]): -0.1 °C
- deltaT (Mus musculus [4]): -0.1 °C
- deltaT (Mus musculus [5]): -0.5 °C
- Ki [6]: 68.4 nM
- Ki [7]: 41.3 nM
- deltaT (Mus musculus [8]): -0.8 °C
- deltaT (Mus musculus [9]): -0.5 °C
- deltaT (Mus musculus [10]): -0.2 °C
- deltaT (Mus musculus [11]): -1.3 °C
- deltaT (Mus musculus [12]): -0.1 °C

SMILES: Cc1ccccc1-c1c2n(c(=O)n(CCCCN3CCC(c4c(C)[nH]c5ccccc45)CC3)c1=O)CCCC2
- Ki [6]: 882 nM
- Ki [7]: 642 nM

SMILES: Cc1[nH]c2ccccc2c1C1CCN(CCCCn2c(=O)c(-c3ccc(F)cc3)c3n(c2=O)CCCC3)CC1
- Ki [6]: 147 nM
- Ki [7]: 114 nM

SMILES: O=c1c(-c2ccccc2Cl)c2n(c(=O)n1CCCCN1CCC(c3c[nH]c4ccccc34)CC1)CCCC2
- deltaT (Mus musculus [13]): -0.2 °C
- deltaT (Mus musculus [1]): -0.1 °C
- deltaT (Mus musculus [14]): -0.2 °C
- deltaT (Mus musculus [15]): -0.6 °C
- deltaT (Mus musculus [16]): -0.7 °C
- deltaT (Mus musculus [17]): -0.1 °C
- Ki [6]: 147 nM
- deltaT (Mus musculus [18]): 0 °C
- Ki [7]: 62.3 nM
- deltaT (Mus musculus [19]): -0.1 °C
- deltaT (Mus musculus [8]): -0.2 °C
- deltaT (Mus musculus [9]): -0.2 °C
- deltaT (Mus musculus [20]): -1 °C
- deltaT (Mus musculus [11]): -0.5 °C

SMILES: COc1ccc(-c2c3n(c(=O)n(CCCCN4CCC(c5c(C)[nH]c6ccccc56)CC4)c2=O)CCCC3)cc1
- Ki [6]: 184 nM
- Ki [7]: 153 nM

SMILES: Cc1ccc(-c2c3n(c(=O)n(CCCCN4CCC(c5c[nH]c6ccccc56)CC4)c2=O)CCCC3)cc1
- deltaT (Mus musculus [13]): -0.4 °C
- deltaT (Mus musculus [1]): -0.2 °C
- deltaT (Mus musculus [14]): -0.3 °C
- deltaT (Mus musculus [15]): -0.9 °C
- Activity (Mus musculus [21]): inactive
- deltaT (Mus musculus [22]): -0.4 °C
- deltaT (Mus musculus [23]): -0.2 °C
- deltaT (Mus musculus [16]): -0.6 °C
- deltaT (Mus musculus [17]): -0.3 °C
- Ki [6]: 42.4 nM
- deltaT (Mus musculus [18]): -0.1 °C
- Ki [7]: 46.2 nM
- deltaT (Mus musculus [19]): -0.2 °C
- deltaT (Mus musculus [8]): -0.4 °C
- deltaT (Mus musculus [9]): -0.3 °C
- deltaT (Mus musculus [20]): -1.3 °C
- deltaT (Mus musculus [11]): -0.5 °C
- Activity (Mus musculus [24]): inactive

SMILES: CC(C)NCC(O)COc1cccc2[nH]ccc12 (centres undefined)
- deltaT (Mus musculus [25]): -0.1 °C
- deltaT (Mus musculus [26]): -0.1 °C
- deltaT (Mus musculus [27]): -0.1 °C
- deltaT (Mus musculus [4]): -0.1 °C
- deltaT (Mus musculus [28]): -0.1 °C
- deltaT (Mus musculus [29]): -0.2 °C
- deltaT (Mus musculus [30]): -0.1 °C
- deltaT (Mus musculus [31]): -0.1 °C
- deltaT (Mus musculus [10]): -0.2 °C
- deltaT (Mus musculus [32]): -0.1 °C

SMILES: O=c1c(-c2ccc(Cl)cc2)c2n(c(=O)n1CCCCN1CCC(c3c[nH]c4ccccc34)CC1)CCCC2
- deltaT (Mus musculus [1]): -0.3 °C
- deltaT (Mus musculus [2]): -0.4 °C
- deltaT (Mus musculus [3]): -0.1 °C
- Activity (Mus musculus [33]): inactive
- deltaT (Mus musculus [4]): -0.1 °C
- deltaT (Mus musculus [5]): -0.3 °C
- Ki [6]: 44.1 nM
- Ki [7]: 48.6 nM
- Activity (Mus musculus [34]): inactive
- deltaT (Mus musculus [8]): -0.5 °C
- deltaT (Mus musculus [9]): -0.4 °C
- deltaT (Mus musculus [10]): -0.2 °C
- deltaT (Mus musculus [11]): -1 °C
- deltaT (Mus musculus [12]): -0.1 °C
